Columns and labels:
Escherichia coli = experiment: Tested in vitro for percent inhibition of the growth of Escherichia coli at concentration of 20 uM; type: functional
Listeria innocua = experiment: Tested in vitro for percent inhibition of the growth of Listeria inocua at concentration of 20 uM; type: functional

Structure (SMILES) | Growth response (Escherichia coli) | Growth response (Listeria innocua)
CCC(=O)NCCn1ccc(=O)c(O)c1C | 0% | 14%
C=CC(=O)NCCn1ccc(=O)c(O)c1C | 0% | 13%
